# Laboratory results published in PubChem BioAssay AID1259407 (Chemical Carcinogenesis Research Information System (CCRIS), 2018).
# Active and inactive are the calls of the source. The rule behind the calls is not given here.
# System: CCRIS mutagenicity, Ames/micronucleus/aberration tests
# Assay: CCRIS mutagenicity studies
# [1] = Test System: AMES SALMONELLA TYPHIMURIUM, Strain/Indicator: TA97, Metabolic Activation: NONE, Method: PREINCUBATION
# [2] = Test System: AMES SALMONELLA TYPHIMURIUM, Strain/Indicator: TA98, Metabolic Activation: NONE, Method: PREINCUBATION
# [3] = Test System: AMES SALMONELLA TYPHIMURIUM, Strain/Indicator: TA100, Metabolic Activation: NONE, Method: PREINCUBATION
# [4] = Test System: AMES SALMONELLA TYPHIMURIUM, Strain/Indicator: TA1535, Metabolic Activation: NONE, Method: PREINCUBATION
compound,measurement,setting,value
COc1ccc(N)cc1N,mutagenic call,"Test System: AMES SALMONELLA TYPHIMURIUM, Strain/Indicator: TA97, Metabolic Activation: HAMSTER, LIVER, S-9, AROCLOR 1254 (10%), Method: PREINCUBATION",active; positive
same,mutagenic call,[1],inactive; negative
same,mutagenic call,"Test System: AMES SALMONELLA TYPHIMURIUM, Strain/Indicator: TA97, Metabolic Activation: RAT, LIVER, S-9, AROCLOR 1254 (4 OR 10%), Method: STANDARD PLATE",active; positive
same,mutagenic call,"Test System: AMES SALMONELLA TYPHIMURIUM, Strain/Indicator: TA97, Metabolic Activation: RAT, LIVER, S-9, AROCLOR 1254 (10%), Method: PREINCUBATION",active; positive
same,mutagenic call,"Test System: AMES SALMONELLA TYPHIMURIUM, Strain/Indicator: TA98, Metabolic Activation: HAMSTER, LIVER, S-9, AROCLOR 1254 (10%), Method: PREINCUBATION",active; positive
same,mutagenic call,[2],active; positive
same,mutagenic call,"Test System: AMES SALMONELLA TYPHIMURIUM, Strain/Indicator: TA98, Metabolic Activation: RAT, LIVER, S-9, AROCLOR 1254 (10%), Method: PREINCUBATION",active; positive
same,mutagenic call,"Test System: AMES SALMONELLA TYPHIMURIUM, Strain/Indicator: TA100, Metabolic Activation: HAMSTER, LIVER, S-9, AROCLOR 1254 (10%), Method: PREINCUBATION",active; positive
same,mutagenic call,[3],inactive; negative
same,mutagenic call,"Test System: AMES SALMONELLA TYPHIMURIUM, Strain/Indicator: TA100, Metabolic Activation: RAT, LIVER, S-9, AROCLOR 1254 (10%), Method: PREINCUBATION",active; positive
same,mutagenic call,"Test System: AMES SALMONELLA TYPHIMURIUM, Strain/Indicator: TA1535, Metabolic Activation: HAMSTER, LIVER, S-9, AROCLOR 1254 (10%), Method: PREINCUBATION",inactive; negative
same,mutagenic call,[4],inactive; negative
same,mutagenic call,"Test System: AMES SALMONELLA TYPHIMURIUM, Strain/Indicator: TA1535, Metabolic Activation: RAT, LIVER, S-9, AROCLOR 1254 (10%), Method: PREINCUBATION",inactive; negative
same,mutagenic call,"Test System: AMES SALMONELLA TYPHIMURIUM, Strain/Indicator: TA1537, Metabolic Activation: RAT, LIVER, S-9, AROCLOR 1254 (4 OR 10%), Method: STANDARD PLATE",active; positive
same,mutagenic call,"Test System: AMES SALMONELLA TYPHIMURIUM, Strain/Indicator: TA1538, Metabolic Activation: RAT, LIVER, S-9, AROCLOR 1254 (4 OR 10%), Method: STANDARD PLATE",active; positive
same,mutagenic call,"Test System: CHINESE HAMSTER V-79, Strain/Indicator: V-79/6-THIOGUANINE, Metabolic Activation: NONE, Method: SUSPENSION/PLATE",active; positive
same,mutagenic call,"Test System: CHINESE HAMSTER V-79, Strain/Indicator: V-79/6-THIOGUANINE, Metabolic Activation: RAT, LIVER, S-9, PHENOBARBITAL AND BETA-NAPHTHOFLAVONE, Method: SUSPENSION/PLATE",inactive; negative
same,mutagenic call,"Test System: E. COLI, Strain/Indicator: WP2 UVRA, Metabolic Activation: HAMSTER, LIVER, S-9, AROCLOR 1254, Method: STANDARD PLATE",inactive; negative
same,mutagenic call,"Test System: E. COLI, Strain/Indicator: WP2 UVRA, Metabolic Activation: HAMSTER, LIVER, S-9, Method: STANDARD PLATE",inactive; negative
same,mutagenic call,"Test System: E. COLI, Strain/Indicator: WP2 UVRA, Metabolic Activation: MOUSE, LIVER, S-9, AROCLOR 1254, Method: STANDARD PLATE",inactive; negative
same,mutagenic call,"Test System: E. COLI, Strain/Indicator: WP2 UVRA, Metabolic Activation: MOUSE, LIVER, S-9, Method: STANDARD PLATE",inactive; negative
same,mutagenic call,"Test System: E. COLI, Strain/Indicator: WP2 UVRA, Metabolic Activation: NONE, Method: STANDARD PLATE",inactive; negative
same,mutagenic call,"Test System: E. COLI, Strain/Indicator: WP2 UVRA, Metabolic Activation: RAT, LIVER, S-9, AROCLOR 1254, Method: STANDARD PLATE",inactive; negative
same,mutagenic call,"Test System: E. COLI, Strain/Indicator: WP2 UVRA, Metabolic Activation: RAT, LIVER, S-9, Method: STANDARD PLATE",inactive; negative
same,mutagenic call,"Test System: MOUSE LYMPHOMA, Strain/Indicator: L5178Y (TK+/TK-), Metabolic Activation: NONE, Method: SUSPENSION/PLATE",active; positive
same,mutagenic call,"Test System: MOUSE LYMPHOMA, Strain/Indicator: L5178Y (TK+/TK-), Metabolic Activation: RAT, LIVER, S-9, AROCLOR 1254, Method: SUSPENSION/PLATE",active; positive
CC1=C(C)C2(C3=CC(=O)C=CC3=Nc3ccc(O)cc32)C(C)=C(C)C1=O,mutagenic call,"Test System: AMES SALMONELLA TYPHIMURIUM, Strain/Indicator: TA1538, Metabolic Activation: NONE, Method: STANDARD PLATE",inactive; negative
same,mutagenic call,"Test System: AMES SALMONELLA TYPHIMURIUM, Strain/Indicator: TA1538, Metabolic Activation: RAT, LIVER, S-9, AROCLOR 1254, Method: STANDARD PLATE",inactive; negative
N#CCCCCC#N,mutagenic call,"Test System: AMES SALMONELLA TYPHIMURIUM, Strain/Indicator: TA97, Metabolic Activation: HAMSTER, LIVER, S-9, AROCLOR 1254 (10 OR 30%), Method: PREINCUBATION",inactive; negative
same,mutagenic call,[1],inactive; negative
same,mutagenic call,"Test System: AMES SALMONELLA TYPHIMURIUM, Strain/Indicator: TA97, Metabolic Activation: RAT, LIVER, S-9, AROCLOR 1254 (10 OR 30%), Method: PREINCUBATION",inactive; negative
same,mutagenic call,"Test System: AMES SALMONELLA TYPHIMURIUM, Strain/Indicator: TA98, Metabolic Activation: HAMSTER, LIVER, S-9, AROCLOR 1254 (10 OR 30%), Method: PREINCUBATION",inactive; negative
same,mutagenic call,[2],inactive; negative
same,mutagenic call,"Test System: AMES SALMONELLA TYPHIMURIUM, Strain/Indicator: TA98, Metabolic Activation: RAT, LIVER, S-9, AROCLOR 1254 (10 OR 30%), Method: PREINCUBATION",inactive; negative
same,mutagenic call,"Test System: AMES SALMONELLA TYPHIMURIUM, Strain/Indicator: TA100, Metabolic Activation: HAMSTER, LIVER, S-9, AROCLOR 1254 (10 OR 30%), Method: PREINCUBATION",inactive; negative
same,mutagenic call,[3],inactive; negative
same,mutagenic call,"Test System: AMES SALMONELLA TYPHIMURIUM, Strain/Indicator: TA100, Metabolic Activation: RAT, LIVER, S-9, AROCLOR 1254 (10 OR 30%), Method: PREINCUBATION",inactive; negative
same,mutagenic call,"Test System: AMES SALMONELLA TYPHIMURIUM, Strain/Indicator: TA1535, Metabolic Activation: HAMSTER, LIVER, S-9, AROCLOR 1254 (10 OR 30%), Method: PREINCUBATION",inactive; negative
same,mutagenic call,[4],inactive; negative
same,mutagenic call,"Test System: AMES SALMONELLA TYPHIMURIUM, Strain/Indicator: TA1535, Metabolic Activation: RAT, LIVER, S-9, AROCLOR 1254 (10 OR 30%), Method: PREINCUBATION",inactive; negative
Cc1c2ccccc2c2ccc3cccc4ccc1c2c43,mutagenic call,"Test System: AMES SALMONELLA TYPHIMURIUM, Strain/Indicator: TA100, Metabolic Activation: RAT, NADPH-FORTIFIED HOMOGENIZED HEPATOCYTES, AROCLOR 1254, Method: PREINCUBATION",active; positive
same,mutagenic call,"Test System: CHINESE HAMSTER V-79, Strain/Indicator: V-79/8-AZAGUANINE, Metabolic Activation: HAMSTER, EMBRYO, CELL-MEDIATED, Method: STANDARD PLATE",active; positive
